Values quoted from earlier work in patent US9962390B2, “Mosapride sustained-release formulation providing pharmacological and clinical effects with once-daily administration” (Korea United Pharm. Inc., priority 2013, dated 2018).
Counter-ions that a name gives are not always drawn.

How the values were obtained:
[1] = not given; remark: listed apart in the source

Compound | concentration in eyeballs relative to blood (eyeballs) | concentration relative to that in blood plasma (liver, small intestine, kidney, and adrenal glands) | absorbed in the digestive tract (orally administered) | water solubility compared with Mosapride [1]
CCOc1cc(N)c(Cl)cc1C(=O)NCC1CN(Cc2ccc(F)cc2)CCO1 (stereo not shown) [Mosapride, 4-amino-5-chloro-2-ethoxy-N-{[4-(4-fluorobenzyl)-2-morpholinyl]methyl}benzamide] | about half the concentration in blood | at least 10 times | more than 93% | –
CCOc1cc(N)c(Cl)cc1C(=O)NCC1CN(Cc2ccc(F)cc2)CCO1 (stereo not shown) [Mosapride citrate] | – | – | – | higher water solubility
